The values that follow come from patent US5962504A, “Substituted 2-pyrrolidinone activators of PKC” (Georgetown University, priority 1998, dated 1999).

The term Ki denotes the dissociation constant of the complex between target and ligand, obtained from inhibition or displacement.

The target of experiment [1] is PKC. As to the kind of experiment: ability of representative compounds to activate PKC (Ki, Table 1; procedure similar to Kozikowski et al. J. Med. Chem. 1997). The class given is binding. The note with it: read-out: Ki ± SEM.
Experiment [2] has as its system PKC. The conditions noted are these: background statement; cited from earlier work.

Each structure is given as a SMILES string.

On to `CC(C)[C@H]1C(=O)N[C@H](CO)[C@@H]1c1cccc2ccccc12` [Compound 11a, (3R,4S,5S)-3-Isopropyl-4-(1-naphthyl)-5-(hydroxymethyl)pyrrolidin-2-one], for which the Ki at PKC [1] is 5.5 µM. With `CC1=C[C@H]2[C@@]3(O)[C@H](C)C[C@]4(OC(=O)Cc5ccccc5)[C@H]([C@@H]3C=C(CO)C[C@]2(O)C1=O)C4(C)C` [Dpp, 12-deoxyphorbol 13-phenylacetate], in the experiment with PKC [2], the “PKC activation, isozyme selectivity” value is recorded as “isozyme-selective activators of PKC”. `CCCCCCCCCc1ccc([C@@H]2[C@@H](C(C)C)C(=O)N[C@@H]2CO)cc1` [Compound 4b, (3R, 4S, 5S)-3-Isopropyl-4-(4-nonylphenyl)-5-(hydroxymethyl)-pyrrolidin-2-one]: the inhibition constant Ki on PKC [1] was determined as 2.3 ± 0.2 µM. On the same count and under the same terms, for `CCCCCC(=O)Oc1ccc([C@@H]2[C@@H](C(C)C)C(=O)N[C@@H]2CO)c2ccccc12` [Compound 11b, (3R,4S,5S)-3-Isopropyl-4-(4-hexanoyloxynaphth-1-yl)-5-(hydroxymethyl)pyrrolidin-2-one] the value was 0.5 ± 0.04 µM. For `CC(C)[C@H]1C(=O)N[C@H](CO)[C@@H]1c1ccccc1` [Compound 4a, (3R, 4S, 5S)-3-Isopropyl-4-phenyl-5-(hydroxymethyl)pyrrolidin-2-one], the Ki on PKC [1] came out at 129 µM.
